Structures can show the parent of a compound that is named as a salt.
How the values were obtained:
Format in all cases: biochemical
Details in all cases: FDA-approved drug screen
[1] = biological target: T1, recombinant PRL-1 (Homo sapiens, UniProt Q93096); assay: In vitro phosphatase assay (DiFMUP hydrolysis), PRL-1; further: test concentration or dose not given here
T1 construct: 6xHis (N, cleaved yes); made in house; host or cells: E. coli One Shot BL21 Star
T1 sequence (Q93096 1-173): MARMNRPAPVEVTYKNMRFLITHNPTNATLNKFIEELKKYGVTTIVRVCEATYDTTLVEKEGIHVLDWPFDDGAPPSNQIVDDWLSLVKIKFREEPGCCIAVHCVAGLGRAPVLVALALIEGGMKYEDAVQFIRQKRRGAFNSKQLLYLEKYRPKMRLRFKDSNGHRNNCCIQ

[2] = biological target: T2, recombinant PRL-2 (Homo sapiens, UniProt Q12974); assay: In vitro phosphatase assay (DiFMUP hydrolysis), PRL-2;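 further: PRL-2 activity read as DiFMUP hydrolysis after 20 min at room temperature with drug, enzyme first pre-reduced at 4 °C for 20 min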
T2 construct: 6xHis (N, cleaved yes); made in house; host or cells: E. coli One Shot BL21 Star
T2 sequence (Q12974 1-167): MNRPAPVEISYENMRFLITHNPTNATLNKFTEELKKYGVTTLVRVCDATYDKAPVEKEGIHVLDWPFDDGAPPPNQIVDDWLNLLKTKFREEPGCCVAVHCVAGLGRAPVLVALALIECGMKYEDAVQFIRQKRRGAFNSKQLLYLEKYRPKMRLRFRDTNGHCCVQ

[3] = biological target: T3, recombinant PRL-3 (Homo sapiens, UniProt O75365); assay: In vitro phosphatase assay (DiFMUP hydrolysis), PRL-3; further: test concentration or dose not given here
T3 construct: 6xHis (N, cleaved yes); made in house; host or cells: E. coli One Shot BL21 Star
T3 sequence (O75365 whole entry): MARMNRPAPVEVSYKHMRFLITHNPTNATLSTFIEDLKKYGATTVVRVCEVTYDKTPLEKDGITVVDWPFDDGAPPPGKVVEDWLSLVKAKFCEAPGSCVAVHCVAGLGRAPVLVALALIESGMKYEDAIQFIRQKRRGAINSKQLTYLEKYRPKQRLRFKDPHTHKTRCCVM

SMILES	% Phosphatase Activity (compared to DMSO) PRL-1 ([1]; compared to DMSO) [%]	% Phosphatase Activity (compared to DMSO) PRL-2 ([2]; compared to DMSO) [%]	% Phosphatase Activity (compared to DMSO) PRL-3 ([3]; compared to DMSO) [%]	% Phosphatase Activity (compared to DMSO) PRL-1 ([1]; activity compared to DMSO) [%]	% Phosphatase Activity (compared to DMSO) PRL-2 ([2]; activity compared to DMSO) [%]	% Phosphatase Activity (compared to DMSO) PRL-3 ([3]; activity compared to DMSO) [%]
CC12CCC(CC1=O)C2(C)C (stereo not drawn) [(+)-Camphor]	116	132	104	–	–	–
CC(C)NCC(O)c1ccccc1Cl.Cl (stereo not drawn) [Clorprenaline HCl]	91	102	75	–	–	–
O=C(NS(=O)(=O)c1ccc(Br)s1)c1ccc(Cl)cc1Cl [Tasisulam]	–	–	–	94	87	99
CN(C)CC(c1ccc(O)cc1)C1(O)CCCCC1 (stereo not drawn) [Desvenlafaxine Succinate]	106	103	80	–	–	–
O=C(O)c1cc(-c2ccc(F)cc2F)ccc1O [Diflunisal]	91	87	85	–	–	–
CCNC1(C(N)=O)CCN(c2ncnc3c2nc(-c2ccccc2Cl)n3-c2ccc(Cl)cc2)CC1.Cl [Otenabant (CP-945598) HCl]	96	78	97	–	–	–
CCOC(=O)[C@H](CCc1ccccc1)N[C@@H](C)C(=O)N1[C@H](C(=O)O)C[C@@H]2CCC[C@@H]21 [Ramipril]	84	86	93	–	–	–
COc1ccc(-c2ccc3cc(C(=O)O)ccc3c2)cc1C12CC3CC(CC(C3)C1)C2 [Adapalene]	183	141	68	–	–	–
O=C1NC(=O)C(c2ccccc2)(c2ccccc2)N1 [Phenytoin sodium]	100	100	68	–	–	–
CNC[C@H](O)[C@@H](O)[C@H](O)[C@H](O)CO [Meglumine]	105	125	110	–	–	–
CCCC(=O)Nc1ccc(OCC(O)CNC(C)C)c(C(C)=O)c1 (stereo not drawn) [Acebutolol HCl]	105	123	86	–	–	–
CC1(C)O[C@@H]2C[C@H]3[C@@H]4CCC5=CC(=O)C=C[C@]5(C)[C@H]4[C@@H](O)C[C@]3(C)[C@]2(C(=O)CO)O1 [Desonide]	98	97	84	–	–	–
CC(NCCc1ccc(O)cc1)C(O)c1ccc(O)cc1 (stereo not drawn) [Ritodrine HCl]	113	98	83	–	–	–
Cc1cccc(-c2nn3c(c2-c2ccnc4ccc(C(N)=O)cc24)CCC3)n1 [LY2157299]	111	130	115	–	–	–
Cc1nc2n(c(=O)c1CCN1CCC(c3noc4cc(F)ccc34)CC1)CCCC2O (stereo not drawn) [Paliperidone]	102	103	75	–	–	–
CN(Cc1cnc2nc(N)nc(N)c2n1)c1ccc(C(=O)N[C@@H](CCC(=O)O)C(=O)O)cc1 [Methotrexate]	92	83	70	–	–	–
OC(c1ccccc1)(c1ccccc1)C1CCNCC1 [Azacyclonol]	109	127	96	–	–	–
C[C@@H]1CCO[C@H]2Cn3cc(C(=O)NCc4ccc(F)cc4F)c(=O)c(O)c3C(=O)N12 [Dolutegravir (GSK1349572)]	105	101	99	–	–	–
O=C(c1cc(Cc2n[nH]c(=O)c3ccccc23)ccc1F)N1CCN(C(=O)C2CC2)CC1 [Olaparib (AZD2281, Ku-0059436)]	88	101	91	–	–	–
CCCc1nc(C(C)(C)O)c(C(=O)OCc2oc(=O)oc2C)n1Cc1ccc(-c2ccccc2-c2nnn[nH]2)cc1 [Olmesartan Medoxomil]	97	93	76	–	–	–
